Measurements: ChEMBL document CHEMBL1140282, “1,4-Benzodiazepine-2,5-diones as small molecule antagonists of the HDM2-p53 interaction: discovery and SAR” (Bioorg Med Chem Lett, 2005)

target: Tumour suppressor p53/oncoprotein Mdm2 (Homo sapiens, UniProt Q00987); test: Inhibition of p53-binding to HDM2 (human MDM2) by fluorescence polarization peptide displacement assay; type: protein assay
Sequence (P04637 whole entry): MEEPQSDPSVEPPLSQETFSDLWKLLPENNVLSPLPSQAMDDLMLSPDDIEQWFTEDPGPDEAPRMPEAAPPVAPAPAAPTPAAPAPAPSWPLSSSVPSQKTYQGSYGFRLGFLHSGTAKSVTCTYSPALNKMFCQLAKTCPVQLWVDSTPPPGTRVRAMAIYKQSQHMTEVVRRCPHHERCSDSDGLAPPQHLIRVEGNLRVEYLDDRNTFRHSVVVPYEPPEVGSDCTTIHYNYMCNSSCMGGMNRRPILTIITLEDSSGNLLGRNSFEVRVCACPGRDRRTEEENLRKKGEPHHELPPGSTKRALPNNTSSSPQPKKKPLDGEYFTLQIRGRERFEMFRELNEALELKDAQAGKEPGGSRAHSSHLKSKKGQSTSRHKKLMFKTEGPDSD
Sequence (Q00987 whole entry): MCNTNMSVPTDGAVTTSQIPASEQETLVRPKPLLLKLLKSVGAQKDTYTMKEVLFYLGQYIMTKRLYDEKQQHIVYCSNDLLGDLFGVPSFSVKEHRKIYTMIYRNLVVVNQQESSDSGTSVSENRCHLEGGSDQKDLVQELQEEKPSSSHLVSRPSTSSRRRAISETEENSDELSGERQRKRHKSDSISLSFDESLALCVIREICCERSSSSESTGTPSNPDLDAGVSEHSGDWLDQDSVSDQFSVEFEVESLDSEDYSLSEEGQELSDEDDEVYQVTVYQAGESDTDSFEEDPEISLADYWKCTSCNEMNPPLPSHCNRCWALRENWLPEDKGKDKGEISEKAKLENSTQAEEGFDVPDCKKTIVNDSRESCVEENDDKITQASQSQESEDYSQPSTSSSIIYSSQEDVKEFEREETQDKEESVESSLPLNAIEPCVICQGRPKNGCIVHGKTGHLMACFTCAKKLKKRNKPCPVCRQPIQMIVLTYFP

| Structure (SMILES) | IC50 [nM] |
| --- | --- |
| O=C(O)[C@H](c1ccccc1)N1C(=O)c2cc(I)ccc2NC(=O)[C@@H]1c1ccccc1 | 38000 |
| Cc1ccc([C@H]2C(=O)Nc3ccc(I)cc3C(=O)N2[C@H](C(=O)O)c2ccccc2)cc1 | 13300 |
| O=C(O)[C@H](c1ccccc1)N1C(=O)c2cc(I)ccc2NC(=O)[C@@H]1c1cccc(C(F)(F)F)c1 | 45000 |
| O=C1Nc2ccc(I)cc2C(=O)N([C@H](C(=O)O)c2ccccc2Cl)[C@H]1c1ccc(Cl)cc1 | 20000 |
| O=C(O)[C@H](c1ccc(Cl)nc1)N1C(=O)c2cc(I)ccc2NC(=O)[C@@H]1c1cc2ccccc2[nH]1 | 7900 |
| O=C(O)[C@H](c1ccc(Cl)nc1)N1C(=O)c2cc(I)ccc2NC(=O)[C@@H]1c1ccc(Cl)cc1 | 1470 |
| O=C(O)[C@H](c1ccc(Cl)cc1)N1C(=O)c2cc(I)ccc2NC[C@@H]1c1ccc(Cl)cc1 | 490 |
| CCCC[C@@H](C(=O)O)N1C(=O)c2cc(I)ccc2NC(=O)[C@@H]1c1ccc(Cl)cc1 | 14000 |
| O=C(O)[C@H](c1ccc(Cl)nc1)N1C(=O)c2cc(I)ccc2NC(=O)[C@@H]1c1c[nH]c2ccccc12 | 55000 |
| O=C(O)[C@H](c1ccccc1)N1C(=O)c2cc(I)ccc2NC(=O)[C@@H]1c1ccc(OC(F)(F)F)cc1 | 1320 |
| CC(C)CC[C@@H](C(=O)O)N1C(=O)c2cc(I)ccc2NC(=O)[C@@H]1c1ccc(Cl)cc1 | 12000 |
| CCc1ccc([C@H]2C(=O)Nc3ccc(I)cc3C(=O)N2[C@H](C(=O)O)c2ccccc2)cc1 | 7500 |
| O=C1Nc2ccc(I)cc2C(=O)N([C@@H](Cc2ccccc2)C(=O)O)[C@H]1c1ccc(Cl)cc1 | 12000 |
| O=C(O)[C@H](c1ccccc1)N1C(=O)c2cc(I)ccc2NC(=O)[C@@H]1c1ccc(Cl)cc1 | 2500 |
| O=C1Nc2ccc(I)cc2C(=O)N([C@H](C(=O)O)C2CCCCC2)[C@H]1c1ccc(Cl)cc1 | 64000 |
| CC(C)c1ccc([C@H]2C(=O)Nc3ccc(I)cc3C(=O)N2[C@H](C(=O)O)c2ccccc2)cc1 | 18000 |
| O=C(O)[C@H](c1ccc(Cl)cc1)N1C(=O)c2cc(I)ccc2NC(=O)[C@@H]1c1ccc(Cl)nc1 | 7400 |
| O=C(O)[C@H](c1ccc(Cl)cc1)N1C(=O)c2cc(I)ccc2NC(=O)[C@@H]1c1ccc(OC(F)(F)F)cc1 | 83 |
| O=C(O)[C@H](c1ccc(Cl)cc1)N1Cc2cc(I)ccc2NC[C@@H]1c1ccc(Cl)cc1 | > 125000 |
| O=C(O)[C@H](c1ccccc1)N1C(=O)c2cc(I)ccc2NC(=O)[C@@H]1c1ccccc1C(F)(F)F | > 125000 |

The remaining lines, values ahead:

| IC50 [nM] | Structure (SMILES) |
| --- | --- |
| 670 | O=C(O)[C@H](c1ccc(C(F)(F)F)cc1)N1C(=O)c2cc(I)ccc2NC(=O)[C@@H]1c1ccc(Cl)cc1 |
| 1550 | CC(C)c1ccc([C@@H](C(=O)O)N2C(=O)c3cc(I)ccc3NC(=O)[C@@H]2c2ccc(Cl)cc2)cc1 |
| 6300 | O=C(O)[C@H](c1ccc(Cl)cc1)N1C(=O)c2ccc(Cl)cc2NC(=O)[C@@H]1c1ccc(Cl)cc1 |
| 2400 | O=C(O)[C@H](c1ccc(Cl)cc1)N1C(=O)c2cc(CCO)ccc2NC(=O)[C@@H]1c1ccc(Cl)cc1 |
| 1590 | Cc1ccc([C@@H](C(=O)O)N2C(=O)c3cc(I)ccc3NC(=O)[C@@H]2c2ccc(Cl)cc2)cc1 |
| 2270 | CC(C)(C)c1ccc([C@@H](C(=O)O)N2C(=O)c3cc(I)ccc3NC(=O)[C@@H]2c2ccc(Cl)cc2)cc1 |
| 14800 | O=C(O)[C@H](c1ccc(Cl)cc1)N1C(=O)c2ccccc2NC(=O)[C@@H]1c1ccc(Cl)cc1 |
| 620 | O=C(O)[C@H](c1ccc(Br)cc1)N1C(=O)c2cc(I)ccc2NC(=O)[C@@H]1c1ccc(Cl)cc1 |
| 620 | O=C(O)[C@H](c1ccc(Cl)cc1)N1C(=O)c2cc(I)ccc2NC(=O)[C@@H]1c1ccc(C(F)(F)F)cc1 |
| 2270 | CC(C)(C)c1ccc2c(c1)C(=O)N([C@H](C(=O)O)c1ccc(Cl)cc1)[C@@H](c1ccc(Cl)cc1)C(=O)N2 |
| 1020 | CC(C)c1ccc2c(c1)C(=O)N([C@H](C(=O)O)c1ccc(Cl)cc1)[C@@H](c1ccc(Cl)cc1)C(=O)N2 |
| 1500 | CCc1ccc2c(c1)C(=O)N([C@H](C(=O)O)c1ccc(Cl)cc1)[C@@H](c1ccc(Cl)cc1)C(=O)N2 |
| 3300 | O=C(O)[C@H](c1ccc(Cl)cc1)N1C(=O)c2cc(CO)ccc2NC(=O)[C@@H]1c1ccc(Cl)cc1 |
| 870 | C#Cc1ccc2c(c1)C(=O)N([C@H](C(=O)O)c1ccc(Cl)cc1)[C@@H](c1ccc(Cl)cc1)C(=O)N2 |
| 14800 | N#Cc1ccc2c(c1)C(=O)N([C@H](C(=O)O)c1ccc(Cl)cc1)[C@@H](c1ccc(Cl)cc1)C(=O)N2 |
| 830 | O=C(O)[C@H](c1ccc(Cl)cc1)N1C(=O)c2cc(Cl)ccc2NC(=O)[C@@H]1c1ccc(Cl)cc1 |
| 16500 | O=C(O)[C@H](c1ccc(O)cc1)N1C(=O)c2cc(I)ccc2NC(=O)[C@@H]1c1ccc(Cl)cc1 |
| > 125000 | CC(=O)Nc1ccc2c(c1)C(=O)N([C@H](C(=O)O)c1ccc(Cl)cc1)[C@@H](c1ccc(Cl)cc1)C(=O)N2 |
| 700 | O=C(O)[C@H](c1ccc(Cl)cc1)N1C(=O)c2cc(I)c(Cl)cc2NC(=O)[C@@H]1c1ccc(Cl)cc1 |
| 2700 | O=C(O)[C@H](c1cccc(Cl)c1)N1C(=O)c2cc(I)ccc2NC(=O)[C@@H]1c1ccc(Cl)cc1 |
| 830 | O=C(O)[C@H](c1ccc(Cl)cc1)N1C(=O)c2cc(Br)ccc2NC(=O)[C@@H]1c1ccc(Cl)cc1 |

test system: not listed separately; test: Dissociation constant was determined; (by measuring difference in protein melting temperature); type: physicochemical

| Kd [nM] | Structure (SMILES) |
| --- | --- |
| 83 | CC(C)c1ccc([C@@H](C(=O)O)N2C(=O)c3cc(I)ccc3NC(=O)[C@@H]2c2ccc(Cl)cc2)cc1 |
| 1670 | O=C(O)[C@H](c1ccc(Cl)cc1)N1C(=O)c2ccc(Cl)cc2NC(=O)[C@@H]1c1ccc(Cl)cc1 |
| 167 | Cc1ccc([C@@H](C(=O)O)N2C(=O)c3cc(I)ccc3NC(=O)[C@@H]2c2ccc(Cl)cc2)cc1 |
| 7690 | O=C(O)[C@H](c1ccc(Cl)cc1)N1C(=O)c2ccccc2NC(=O)[C@@H]1c1ccc(Cl)cc1 |
| 83 | O=C(O)[C@H](c1ccc(Br)cc1)N1C(=O)c2cc(I)ccc2NC(=O)[C@@H]1c1ccc(Cl)cc1 |
| 250 | C#Cc1ccc2c(c1)C(=O)N([C@H](C(=O)O)c1ccc(Cl)cc1)[C@@H](c1ccc(Cl)cc1)C(=O)N2 |
| 10000 | N#Cc1ccc2c(c1)C(=O)N([C@H](C(=O)O)c1ccc(Cl)cc1)[C@@H](c1ccc(Cl)cc1)C(=O)N2 |
| 1530 | O=C(O)[C@H](c1ccc(Cl)cc1)N1C(=O)c2cc(Cl)ccc2NC(=O)[C@@H]1c1ccc(Cl)cc1 |
| 14300 | O=C(O)[C@H](c1ccc(O)cc1)N1C(=O)c2cc(I)ccc2NC(=O)[C@@H]1c1ccc(Cl)cc1 |
| 167 | O=C(O)[C@H](c1ccc(Cl)cc1)N1C(=O)c2cc(I)c(Cl)cc2NC(=O)[C@@H]1c1ccc(Cl)cc1 |
| 970 | O=C(O)[C@H](c1ccc(Cl)cc1)N1C(=O)c2cc(Br)ccc2NC(=O)[C@@H]1c1ccc(Cl)cc1 |
| 760 | O=C(O)[C@H](c1ccc(Cl)cc1)N1C(=O)c2cc(I)ccc2NC(=O)[C@@H]1c1ccc(OC(F)(F)F)cc1 |
